From patent US10913727B2, “Modulators of the integrated stress pathway” (Calico Life Sciences LLC, priority 2016, dated 2021)

Test system: HEK293T cells carrying the ATF4 luciferase reporter
Assay: ATF4-Luc assay, in vitro model of Vanishing Cell White Matter Disease (VWMD)
Assay type: cell-based
Conditions: Homo sapiens, HEK-293T, 1 μg/mL tunicamycin, 7 hours, One Glo luminescence
Procedure, shortened: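 Reporter cells were stably generated by retroviral transduction and puromycin selection, then seeded at 30,000 cells/well. Next day, cells received 1 μg/mL tunicamycin with 200 nM test compound for 7 h, and luciferase luminescence was read with a one-step reagent. Values reported as EC50.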

Compound | EC50
Cc1ccc(F)c(C(=O)NC23CC(NC(=O)COc4ccc(Cl)c(F)c4)(C2)C3)n1 [Compound 832, N-{3-[2-(4-chloro-3-fluorophenoxy)acetamido]bicyclo[1.1.1]pentan-1-yl}-3-fluoro-6-methylpyridine-2-carboxamide] | 50 to 250 nM
CCc1cc(C(=O)NC23CCC(NC(=O)COc4ccc(Cl)c(Cl)c4)(CC2)[C@@H](O)C3)on1 [Compound 694, N-{(3S)-4-[2-(3,4-dichlorophenoxy)acetamido]-3-hydroxybicyclo[2.2.2]octan-1-yl}-3-ethyl-1,2-oxazole-5-carboxamide] | < 50 nM
O=C(COc1ccc(Cl)c(F)c1)NC12CCC(NC(=O)c3cc(Cc4ccc(Cl)cc4)no3)(CC1)CC2O (centres unmarked) [Compound 410, N-{4-[2-(4-chloro-3-fluorophenoxy)acetamido]-3-hydroxybicyclo[2.2.2]octan-1-yl}-3-[(4-chlorophenyl)methyl]-1,2-oxazole-5-carboxamide] | 50 to 250 nM
O=C(COc1ccc(Cl)c(F)c1)NC12CCC(NC(=O)c3cnc(C(F)F)cn3)(C1)C2 [Compound 296, N-{4-[2-(4-chloro-3-fluorophenoxy)acetamido]bicyclo[2.1.1]hexan-1-yl}-5-(difluoromethyl)pyrazine-2-carboxamide] | 50 to 250 nM
O=C(COc1ccc(Cl)c(F)c1)NC12CCC(NC(=O)c3ccc4cc(F)ccc4n3)(CC1)[C@@H](O)C2 [Compound 930, N-{(2S)-4-[2-(4-chloro-3-fluorophenoxy)acetamido]-2-hydroxybicyclo[2.2.2]octan-1-yl}-6-fluoroquinoline-2-carboxamide] | < 50 nM
COc1cc(C(=O)NC23CCC(NC(=O)COc4ccc(Cl)c(F)c4)(CC2)C(O)C3)on1 (centres unmarked) [Compound 576, N-{4-[2-(4-chloro-3-fluorophenoxy)acetamido]-3-hydroxybicyclo[2.2.2]octan-1-yl}-3-methoxy-1,2-oxazole-5-carboxamide] | 50 to 250 nM
O=C(COc1ccc(Cl)c(F)c1)NC12CC(NC(=O)c3ccc(CCC4CC4)cn3)(C1)C2 [Compound 289, N-{3-[2-(4-chloro-3-fluorophenoxy)acetamido]bicyclo[1.1.1]pentan-1-yl}-5-(2-cyclopropylethyl)pyridine-2-carboxamide] | < 50 nM
COc1ccc(C(=O)NC23CC(NC(=O)COc4ccc(Cl)c(F)c4)(C2)C3)cc1OC [Compound 302, N-{3-[2-(4-chloro-3-fluorophenoxy)acetamido]bicyclo[1.1.1]pentan-1-yl}-3,4-dimethoxybenzamide] | > 2000 nM
O=C(COc1ccc(Cl)c(F)c1)NC12CC(NC(=O)c3ccc(-c4ccco4)cn3)(C1)C2 [Compound 267, N-{3-[2-(4-chloro-3-fluorophenoxy)acetamido]bicyclo[1.1.1]pentan-1-yl}-5-(furan-2-yl)pyridine-2-carboxamide] | < 50 nM
Cc1ncc(C(=O)NC23CCC(NC(=O)COc4ccc(Cl)c(F)c4)(CC2)[C@@H](O)C3)nc1C [Compound 672, N-{(3S)-4-[2-(4-chloro-3-fluorophenoxy)acetamido]-3-hydroxybicyclo[2.2.2]octan-1-yl}-5,6-dimethylpyrazine-2-carboxamide] | 50 to 250 nM
Cc1nc(C(F)(F)F)c(C(=O)NC23CCC(NC(=O)COc4ccc(Cl)c(F)c4)(CC2)C(O)C3)s1 (centres unmarked) [Compound 504, N-{4-[2-(4-chloro-3-fluorophenoxy)acetamido]-3-hydroxybicyclo[2.2.2]octan-1-yl}-2-methyl-4-(trifluoromethyl)-1,3-thiazole-5-carboxamide] | 50 to 250 nM
Cc1cccnc1C(=O)NC12CC(NC(=O)COc3ccc(Cl)c(F)c3)(C1)C2 [Compound 368, N-{3-[2-(4-chloro-3-fluorophenoxy)acetamido]bicyclo[1.1.1]pentan-1-yl}-3-methylpyridine-2-carboxamide] | 250 to 1000 nM
O=C(COc1ccc(Cl)c(F)c1)NC12CCC(NC(=O)c3cnn4ccccc34)(CC1)CC2O (centres unmarked) [Compound 596, N-{4-[2-(4-chloro-3-fluorophenoxy)acetamido]-3-hydroxybicyclo[2.2.2]octan-1-yl}pyrazolo[1,5-a]pyridine-3-carboxamide] | 250 to 1000 nM
Cc1coc(C(=O)NC23CC(NC(=O)COc4ccc(Cl)c(F)c4)(C2)C3)c1 [Compound 613, N-{3-[2-(4-chloro-3-fluorophenoxy)acetamido]bicyclo[1.1.1]pentan-1-yl}-4-methylfuran-2-carboxamide] | 50 to 250 nM
Cc1nc(C(=O)NC23CCC(NC(=O)COc4ccc(Cl)c(F)c4)(CC2)[C@@H](O)C3)n[nH]1 [Compound 673, N-{(3S)-4-[2-(4-chloro-3-fluorophenoxy)acetamido]-3-hydroxybicyclo[2.2.2]octan-1-yl}-5-methyl-1H-1,2,4-triazole-3-carboxamide] | 50 to 250 nM
COc1ccc(C(=O)NC23CC(NC(=O)COc4ccc(Cl)c(F)c4)(C2)C3)c(F)c1 [Compound 518, N-{3-[2-(4-chloro-3-fluorophenoxy)acetamido]bicyclo[1.1.1]pentan-1-yl}-2-fluoro-4-methoxybenzamide] | 250 to 1000 nM

Compound | EC50
O=C(COc1ccc(Cl)c(F)c1)NC12CC(NC(=O)c3cccc[n+]3[O-])(C1)C2 [Compound 403, N-{3-[2-(4-chloro-3-fluorophenoxy)acetamido]bicyclo[1.1.1]pentan-1-yl}-1-oxo-1λ^5-pyridine-2-carboxamide] | > 2000 nM
CCc1nc(C(=O)NC23CC(NC(=O)COc4ccc5c(c4)OC(F)(F)O5)(C2)C3)cs1 [Compound 699, N-(3-{2-[(2,2-difluoro-2H-1,3-benzodioxol-5-yl)oxy]acetamido}bicyclo[1.1.1]pentan-1-yl)-2-ethyl-1,3-thiazole-4-carboxamide] | 250 to 1000 nM
O=C(COc1ccc(Cl)c(Cl)c1)NC12CCC(NC(=O)c3cc(C(F)F)no3)(CC1)C[C@@H]2O [Compound 758, N-{(3S)-4-[2-(3,4-dichlorophenoxy)acetamido]-3-hydroxybicyclo[2.2.2]octan-1-yl}-3-(difluoromethyl)-1,2-oxazole-5-carboxamide] | < 50 nM
Cc1ccc(C(=O)NC23CC(NC(=O)COc4ccc(Cl)c(Cl)c4)(C2)C3)c(C)n1 [Compound 687, N-{3-[2-(3,4-dichlorophenoxy)acetamido]bicyclo[1.1.1]pentan-1-yl}-2,6-dimethylpyridine-3-carboxamide] | 250 to 1000 nM
Cc1ncc(-c2ncc(C(=O)NC34CC(NC(=O)COc5ccc(Cl)c(F)c5)(C3)C4)o2)cn1 [Compound 109, N-{3-[2-(4-chloro-3-fluorophenoxy)acetamido]bicyclo[1.1.1]pentan-1-yl}-2-(2-methylpyrimidin-5-yl)-1,3-oxazole-5-carboxamide] | 250 to 1000 nM
Cc1ncc(C(=O)NC23CC(NC(=O)COc4ccc(Cl)c(F)c4)(C2)C3)c(C)n1 [Compound 784, N-{3-[2-(4-chloro-3-fluorophenoxy)acetamido]bicyclo[1.1.1]pentan-1-yl}-2,4-dimethylpyrimidine-5-carboxamide] | > 2000 nM
Cc1ccc(C(=O)NC23CC(NC(=O)COc4ccc(Cl)c(F)c4)(C2)C3)cn1 [Compound 140, N-{3-[2-(4-chloro-3-fluorophenoxy)acetamido]bicyclo[1.1.1]pentan-1-yl}-6-methylpyridine-3-carboxamide] | 250 to 1000 nM
CCn1cc(C(=O)NC23CC(NC(=O)COc4ccc(Cl)c(F)c4)(C2)C3)c(C)n1 [Compound 825, N-{3-[2-(4-chloro-3-fluorophenoxy)acetamido]bicyclo[1.1.1]pentan-1-yl}-1-ethyl-3-methyl-1H-pyrazole-4-carboxamide] | 250 to 1000 nM
O=C(COc1ccc(Cl)c(F)c1)NC12CC(NC(=O)c3ccc4c(c3)OCCO4)(C1)C2 [Compound 387, N-{3-[2-(4-chloro-3-fluorophenoxy)acetamido]bicyclo[1.1.1]pentan-1-yl}-2,3-dihydro-1,4-benzodioxine-6-carboxamide] | 50 to 250 nM
O=C(COc1ccc(Cl)c(F)c1)NC12CCC(NC(=O)c3csc(C4CC4)n3)(CC1)C[C@@H]2O [Compound 751, N-{(3S)-4-[2-(4-chloro-3-fluorophenoxy)acetamido]-3-hydroxybicyclo[2.2.2]octan-1-yl}-2-cyclopropyl-1,3-thiazole-4-carboxamide] | < 50 nM
Cc1ccn2c(=O)c(C(=O)NC34CC(NC(=O)COc5ccc(Cl)c(F)c5)(C3)C4)cnc2c1 [Compound 314, N-{3-[2-(4-chloro-3-fluorophenoxy)acetamido]bicyclo[1.1.1]pentan-1-yl}-8-methyl-4-oxo-4H-pyrido[1,2-a]pyrimidine-3-carboxamide] | > 2000 nM
O=C(COc1ccc(Cl)c(F)c1)NC12CC(NC(=O)c3cccc(Cn4cncn4)c3)(C1)C2 [Compound 892, N-{3-[2-(4-chloro-3-fluorophenoxy)acetamido]bicyclo[1.1.1]pentan-1-yl}-3-[(1H-1,2,4-triazol-1-yl)methyl]benzamide] | 250 to 1000 nM
O=C(COc1ccc(Cl)c(F)c1)NC12CC(NC(=O)c3ccc(C(F)(F)F)nc3)(C1)C2 [Compound 203, N-{3-[2-(4-chloro-3-fluorophenoxy)acetamido]bicyclo[1.1.1]pentan-1-yl}-6-(trifluoromethyl)pyridine-3-carboxamide] | 1000 to 2000 nM
CC(C)(O)CCc1ccnc(C(=O)NC23CC(NC(=O)COc4ccc(Cl)c(F)c4)(C2)C3)c1 [Compound 432, N-{3-[2-(4-chloro-3-fluorophenoxy)acetamido]bicyclo[1.1.1]pentan-1-yl}-4-(3-hydroxy-3-methylbutyl)pyridine-2-carboxamide] | > 2000 nM
O=C(COc1ccc(Cl)c(F)c1)NC12CCC(NC(=O)c3cc(-n4ccnc4)ccn3)(CC1)CC2O (centres unmarked) [Compound 934, N-{4-[2-(4-chloro-3-fluorophenoxy)acetamido]-3-hydroxybicyclo[2.2.2]octan-1-yl}-4-(1H-imidazol-1-yl)pyridine-2-carboxamide] | 1000 to 2000 nM
Cn1cc(C(=O)NC23CC(NC(=O)COc4ccc(Cl)c(F)c4)(C2)C3)ccc1=O [Compound 818, N-{3-[2-(4-chloro-3-fluorophenoxy)acetamido]bicyclo[1.1.1]pentan-1-yl}-1-methyl-6-oxo-1,6-dihydropyridine-3-carboxamide] | > 2000 nM
